The values below are quoted from earlier work in patent publication US8263564B2, “Iron-carbohydrate complex compounds” (Vifor (International) AG, priority 2007, dated 2012).

Molecules are shown by their SMILES.

The subject of this data set is mice. As to conditions: intravenously on mice; Berenbaum et al. 1960 cited in Geisser et al. 1992.

Take `O=S(=O)([O-])[O-].[Fe+2]` [Fe(II) sulfate]: the LD50 was 11 mg of Fe/kg of body weight.
